This assay deals with LraA (L-rhamnose dehydrogenase). The assay can be described thus: NADH formation at […] nm, Michaelis-Menten fit. It counts as biochemical, Aspergillus niger. To be noted: NAD+ 1 mM as co-substrate, 100 mM Tris-HCl pH 8.0, 25 °C.

SMILES strings stand for the structures.

For `C[C@@H]1OC(O)[C@H](O)[C@H](O)[C@H]1O` (stereo partly drawn) [L-rhamnose], the Km amounted to 2400 ± 900 µM.

As usually defined, the Km is the concentration of substrate that gives half-maximal velocity.
